Data: PubChem BioAssay (NCI)
Values joined by “and” are separate entries in the source; they are usually repeats but may differ in a detail not shown here. Identical values can stand only once.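 All cell lines were grown in 96-well plates and treated with compound for 48 hours. GI50 marks 50% less growth. Definition used: TGI = concentration required for complete inhibition of growth.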

Tests used:
Experiment in all cases: growth of human tumour cells (NCI), 48 h
[1] = tested on: A549 NSCLC
[2] = tested on: ACHN renal
[3] = tested on: HS 578T breast
[4] = tested on: MDA-MB-435
[5] = tested on: MOLT-4 leukemia
[6] = tested on: NCI-H226 lung
[7] = tested on: NCI-H460 lung
[8] = tested on: OVCAR-8 ovarian
[9] = tested on: SK-MEL-5 melanoma
[10] = tested on: T-47D breast

Row | Structure (SMILES) | GI50 [1] | TGI [1] | GI50 [2] | TGI [2] | GI50 [3] | TGI [3] | GI50 [4] | TGI [4] | GI50 [5] | GI50 [6] | TGI [6] | TGI [7] | GI50 [8] | TGI [8] | GI50 [9] | TGI [9] | GI50 [10] | TGI [10] | TGI [5] | GI50 [7]
1 | C[n+]1c2ccccc2c(Nc2ccc(NS(=O)(=O)CCCCN=C(N)N)cc2)c2ccc(N)cc21 | < 0.0128 µM | 16 µM | 2.79 µM | > 100 µM | 2.79 µM | 52.3 µM | 20.4 µM | > 100 µM | 0.0212 µM | 0.128 µM | 31.2 µM | 12.1 µM | 2.48 µM | > 100 µM | 1.2 µM | 15.2 µM | 0.222 µM | 13.5 µM | – | –
2 | O=C(O)c1ccc2c3c(ncnc13)-c1ccccc1C2=O | 2.23 µM | 4.84 µM | 25.7 µM | > 100 µM | 1.19 µM | 6.28 µM | 1.72 µM | 3.59 µM | > 100 µM | 4.08 µM | > 100 µM | 6.02 µM | 47.5 µM | > 100 µM | 1.34 µM | 2.65 µM | > 100 µM | > 100 µM | > 100 µM | 2.43 µM
3 | CC(C)[NH-].CC(C)[NH-].O.O.[Cl][Pt+2][Cl] | 33.9 µM | 213 µM | 14.1 µM | 107 µM | 98.8 µM | 594 µM | 26 µM | 76.2 µM | 10.2 µM | 66 µM | 259 µM | 62.3 µM | 36.5 µM | 167 µM | 21.2 µM | 59.9 µM | 50.9 µM | 381 µM | 132 µM | 8.8 µM
4 | CC1(C)N=C(N)N=C(N)N1c1ccc(CCc2ccc(Cl)cc2S(=O)(=O)F)c(Cl)c1 | 1.49 µM | > 100 µM | 44.6 µM | > 100 µM | 11.1 µM | 41.3 µM | 4.27 µM | 25.4 µM | 11.5 µM | 17.9 µM | 44.3 µM | > 100 µM | 7.2 µM | 69.1 µM | 4.39 µM | 16.3 µM | 17 µM | 45.2 µM | 73.6 µM | 3.12 µM
5 | Cc1cccc(Cl)c1NC(=O)c1cnc(Nc2cc(N3CCOCC3)cc(N3CCOCC3)c2)s1 | 0.158 µM | > 10 µM | 0.00887 µM | 0.171 µM | 0.0151 µM | 0.157 µM | 4.08 µM | > 10 µM | > 4.96 µM | 0.601 µM | > 10 µM | > 10 µM | 0.0842 µM | > 10 µM | > 8.96 µM | > 10 µM | 0.0368 µM | > 10 µM | > 10 µM | > 5.16 µM
6 | CN[C@@H]1C[C@H]2O[C@@](C)([C@@H]1OC)n1c3ccccc3c3c4c(c5c6ccccc6n2c5c31)C(=O)N[C@H]4O | 0.0465 µM | 3 µM | 0.036 µM | > 10 µM | 0.0191 µM | 0.143 µM | 0.0613 µM | 2.56 µM | 0.0337 µM | 0.0269 µM | > 4.01 µM | 1.23 µM | 0.0885 µM | > 5.44 µM | 0.102 µM | 1.39 µM | 0.00739 µM | 0.163 µM | > 4.75 µM | 0.0471 µM
7 | O=C(O)C1C(=O)Oc2c(cccc2[N+](=O)[O-])C1O (stereo not given) | – | > 100 µM | – | > 100 µM | – | > 100 µM | – | > 100 µM | – | – | > 100 µM | > 100 µM | – | > 100 µM | – | > 100 µM | – | > 100 µM | > 100 µM | –
8 | C[C@@H](NC(=O)[C@@H](CC(=O)N1CCC(N2CCCCC2)CC1)N1C(=O)[C@@H](N2C(=O)OC[C@@H]2c2ccccc2)[C@H]1/C=C/c1cccc(Cl)c1)c1ccccc1 | 4.34 µM | 15.6 µM | 2.31 µM | 6.22 µM | 2.77 µM | 7.16 µM | 1.64 µM | 3.17 µM | 3.2 µM | 14.8 µM | 31.2 µM | 3.95 µM | 4.3 µM | 16.6 µM | 1.85 µM | 3.34 µM | 1.9 µM | 4.33 µM | 10.7 µM | 2.02 µM
9 | COc1cc(F)cc([C@@H](CO)NC(=O)[C@@H](C)N2Cc3ccc(-c4nc(NC5CCOCC5)ncc4Cl)cc3C2=O)c1 | 0.566 µM | > 100 µM | 1.54 µM | 99.1 µM | 4.96 µM | > 81.9 µM | 0.0347 µM | 31.8 µM | 7.42 µM | 1.3 µM | 33.2 µM | > 100 µM | 13.6 µM | 64.8 µM | 0.405 µM | 14.8 µM | 5.03 µM | 33 µM | 34.1 µM | 6.14 µM
10 | O=C(NCCCCCCNC(=O)n1cc(F)c(=O)[nH]c1=O)NCCCOCCOCCOCCOCCOCCOCCOCCOCCOCCOCCOCCOCCOCCOCCOCCOCCOCCOCCOCCOCCOCCCNC(=O)C(O)C(O)C(OC1OC(CO)C(O)C(O)C1O)C(O)CO (stereo not given) | – | > 100 µM | – | > 100 µM | – | > 100 µM | – | > 100 µM | – | – | > 100 µM | > 100 µM | – | > 100 µM | – | > 100 µM | – | > 100 µM | > 100 µM | –
11 | OC(C1CO1)C(O)C1CO1 (stereo not given) | 16.5 µM and 8.67 µM | 150 µM and 235 µM | – | 52.2 µM and 156 µM | 39.3 µM | 150 µM and 392 µM | 46.1 µM | 150 µM and 246 µM | 1.95 µM | 47.7 µM and 122 µM | 136 µM and 412 µM | 53.5 µM and 140 µM | – | 115 µM and 453 µM | 43.9 µM | 85.6 µM and 164 µM | – | 150 µM and 425 µM | 103 µM and 239 µM | 2.14 µM
